Measured values taken from patent US20150297619A1, “METHODS AND COMPOSITIONS FOR PRESERVING THE MUCOSAL BARRIER” (priority 2014, published 2015).

Experiments:
20 kDa serine proteases = assay: Gelatin gel zymography of pre-ischemic intestinal homogenates renatured with inhibitor: serine protease bands; format: biochemical, rat; details: inhibitor in renaturing and developing buffer: tranexamic acid 20 mM, doxycycline 1 mg/ml, GM-6001 1 ug/ml
Protocol: Gelatin Gel Zymography—Segments 2 and 7 from pre-ischemic intestines were homogenized (0.1 g tissue/ml homogenization buffer; PBS pH 7.4 with 0.5% hexadecyltrimethyl bromide) and centrifuged at 1.4×10^4 g for 20 minutes. Supernatants were stored at −80° C. until samples were processed.
To assess the proteolytic activities of individual proteases in intestinal tissue samples, sample volumes of 1 μl (with 2 μg of protein) were separated by gel electrophoresis in SDS-PAGE gels containing 80 μg/ml gelatin. […] The molecular weights of the proteases were estimated by use of a standard protein ladder (Invitrogen). Gels were digitized and bands were analyzed by densitometry in ImageJ (rsbweb.nih.gov/ij/).
These gels were compared to a concurrently run gel processed normally.

[1] = tested on: MMP-9 dimers, pro-MMP-2, MMP-2, MMP-1 or MMP-3; assay: Gelatin gel zymography of pre-ischemic intestinal homogenates renatured with inhibitor: MMP bands; format: biochemical, rat; details: inhibitor in renaturing and developing buffer: tranexamic acid 20 mM, doxycycline 1 mg/ml, GM-6001 1 ug/ml
Protocol: Gelatin Gel Zymography—Segments 2 and 7 from pre-ischemic intestines were homogenized (0.1 g tissue/ml homogenization buffer; PBS pH 7.4 with 0.5% hexadecyltrimethyl bromide) and centrifuged at 1.4×10^4 g for 20 minutes. Supernatants were stored at −80° C. until samples were processed. To assess the proteolytic activities of individual proteases in intestinal tissue samples, sample volumes of 1 μl (with 2 μg of protein) were separated by gel electrophoresis in SDS-PAGE gels containing 80 μg/ml gelatin. […] The molecular weights of the proteases were estimated by use of a standard protein ladder (Invitrogen). Gels were digitized and bands were analyzed by densitometry in ImageJ (rsbweb.nih.gov/ij/). […] These gels were compared to a concurrently run gel processed normally.

MMP gelatinase activity bands (220 kDa MMP-9 dimers, pro-MMP-2, MMP-2, 50 kDa band) [1]: significantly reduce
SMILES: NC[C@H]1CC[C@H](C(=O)O)CC1 [tranexamic acid]
20 kDa serine protease activity bands (20 kDa serine proteases): no significant effect
